Source: PubChem BioAssay (NCI)
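Assay format: 96-well plates, 48-hour exposure. Definition used: TGI = concentration required for complete inhibition of growth.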

Key:
Test in all cases: NCI-60 cell line screen, 48 h
CAKI-1 renal = test system: CAKI-1 renal
A549 NSCLC = test system: A549 NSCLC
OVCAR-5 ovarian = test system: OVCAR-5 ovarian
SK-MEL-28 melanoma = test system: SK-MEL-28 melanoma
MDA-MB-435 = test system: MDA-MB-435
MOLT-4 leukemia = test system: MOLT-4 leukemia
SF-539 CNS = test system: SF-539 CNS
SN12C renal = test system: SN12C renal
HCC-2998 colon = test system: HCC-2998 colon
786-0 renal = test system: 786-0 renal
K-562 leukemia = test system: K-562 leukemia
CCRF-CEM leukemia = test system: CCRF-CEM leukemia
SK-OV-3 ovarian = test system: SK-OV-3 ovarian
HCT-15 colon = test system: HCT-15 colon
OVCAR-4 ovarian = test system: OVCAR-4 ovarian
MDA-N = test system: MDA-N
TK-10 renal = test system: TK-10 renal
SK-MEL-2 melanoma = test system: SK-MEL-2 melanoma
HT29 colon = test system: HT29 colon
HS 578T breast = test system: HS 578T breast

Structure (SMILES) | TGI (CAKI-1 renal) [µM] | TGI (A549 NSCLC) [µM] | TGI (OVCAR-5 ovarian) [µM] | TGI (SK-MEL-28 melanoma) [µM] | TGI (MDA-MB-435) [µM] | TGI (MOLT-4 leukemia) [µM] | TGI (SF-539 CNS) [µM] | TGI (SN12C renal) [µM] | TGI (HCC-2998 colon) [µM] | TGI (786-0 renal) [µM] | TGI (K-562 leukemia) [µM] | TGI (CCRF-CEM leukemia) [µM] | TGI (SK-OV-3 ovarian) [µM] | TGI (HCT-15 colon) [µM] | TGI (OVCAR-4 ovarian) [µM] | TGI (MDA-N) [µM] | TGI (TK-10 renal) [µM] | TGI (SK-MEL-2 melanoma) [µM] | TGI (HT29 colon) [µM] | TGI (HS 578T breast) [µM]
CCOC(=O)/C=C\C(C#N)(C#N)N=Cc1ccsc1 | 5.33 | 38.2 | 33.1 | 6.89 | 6.63 | 5.61 | 12.9 | 36.3 | 32.3 | 5.01 | 14.3 | 1.02 | 35.6 | 10.1 | 19.2 | 24.5 | 4.63 | 33.1 | 28.1 | 48.4
C/C(=N\NC(=S)Nc1ccc([N+](=O)[O-])cc1)c1nc2ncccc2[nH]1 | > 100 | 19.1 | 4.14 | 3.2 | 4.42 | 13.3 | 1.37 | 56.6 | 10.8 | 11.6 | > 100 | 12.4 | 14.7 | 9.04 | 4.21 | > 100 | 4.56 | 4.06 | 2.04 | 6.51
OC1COC(OCc2ccccc2)C(O)C1O (stereo not given) | > 100 | > 100 | > 100 | > 100 | > 100 | > 100 | > 100 | > 100 | > 100 | > 100 | > 100 | > 100 | > 100 | > 100 | > 100 | > 100 | > 100 | > 100 | > 100 | > 100
O=c1[nH]c2nc[nH]c2c(=O)n1C1CCCCC1 | > 100 | > 100 | > 100 | > 100 | > 100 | > 100 | > 100 | > 100 | > 100 | > 100 | > 100 | > 100 | > 100 | > 100 | > 100 | > 100 | > 100 | > 100 | > 100 | > 100
CCOC(=O)/C=C/C1(CCOC(C)=O)CCCCC1 | > 10 | > 10 | > 10 | > 10 | > 10 | > 10 | > 10 | > 10 | > 10 | > 10 | > 10 | > 10 | > 10 | > 10 | > 10 | > 10 | > 10 | > 10 | > 10 | > 10
CC(=O)NCCCCN(CCCNC(C)=O)C(=O)OCc1ccccc1 | > 100 | > 100 | > 100 | > 100 | > 100 | > 100 | > 100 | > 100 | > 100 | > 100 | > 100 | > 100 | > 100 | > 100 | > 100 | > 100 | > 100 | > 100 | > 100 | > 100
CC(=O)N(CC(=O)C(=O)NNc1ccoc1)c1ccc(Cl)cc1 | > 100 | > 100 | > 100 | > 100 | > 100 | > 100 | > 100 | > 100 | > 100 | > 100 | > 100 | > 100 | > 100 | > 100 | > 100 | > 100 | > 100 | > 100 | > 100 | > 100
CSc1c(C#N)c(S)n(-c2ccc(Cl)cc2)c(=O)c1C#N | > 100 | > 100 | > 100 | > 100 | > 100 | > 100 | > 100 | > 100 | > 100 | > 100 | > 100 | > 100 | > 100 | > 100 | > 100 | > 100 | > 100 | > 100 | > 100 | > 100
CCCCN(C)C(=O)C1=C(C)NC(C)=C(C(=O)N(C)CCCC)C1 | > 100 | > 100 | > 100 | > 100 | > 100 | > 100 | > 100 | > 100 | > 100 | > 100 | > 100 | > 100 | > 100 | > 100 | > 100 | > 100 | > 100 | > 100 | > 100 | > 100
O=C(NCCCCCCCN1CCCCCCC1)C(C1CCCCC1)C1CCCCC1 | 20.6 | 25.7 | 23.2 | 16.3 | 22.2 | 20.4 | 24.6 | 26.9 | 7.59 | 12.6 | 11.4 | 46.9 | 23.6 | 15.2 | 25.4 | 21.8 | 25.6 | 22.2 | 11.7 | 51.5
Cc1ccc(S(=O)(=O)N2CC(CCN)c3ccccc32)cc1 (stereo not given) | 23.8 | 32.5 | 24 | 34.7 | 27.1 | > 83.9 | 8.59 | 10.7 | 30.3 | 14.7 | > 60.8 | > 100 | > 44.7 | > 100 | > 100 | 11 | > 51.1 | 13.4 | 8.14 | 54.5
CCOP(=O)(OCC)C(Cc1ccc(Cl)cc1)NS(=O)(=O)c1ccc(C)cc1 (stereo not given) | > 100 | > 100 | > 100 | > 100 | > 100 | > 100 | > 100 | > 100 | > 100 | > 100 | > 100 | > 100 | > 100 | > 100 | > 100 | > 100 | > 100 | > 100 | > 100 | > 100
